Experiments:
rice = assay: Test Example 2: soil surface treatment, upland pot test; assay type: in vivo, Oryza sativa L.; conditions: active ingredient 500 g/ha
Procedure, shortened: (§1)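 Visual growth-control ratings (0 = untreated, 100 = complete kill) were taken 20–28 days after soil surface application. The spray was made one day post-sowing in upland soil pots, using formulated compound diluted with water at 1,500 L/ha at a set active ingredient rate.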

japanese ribbon wapato = assay: Test Example 3: paddy pot test, application under submerged conditions; assay type: in vivo, Sagittaria pygniaea; conditions: active ingredient 250 g/ha; submerged application at primary leaf stage; visually observed 14 days after application; 0 = non-treated, 100 = complete kill
Procedure, shortened: (§2)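 Visual growth-control rating (0 = untreated, 100 = complete kill) 14 days after treatment. The formulated compound, as a diluted wettable powder or emulsifiable concentrate, went into 3–4 cm flood water at a predetermined active-ingredient dose once the weeds reached 0.5 leaf stage (wapato: primary leaf stage).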

rice (var. Nihonbare) = assay: Test Example 3: paddy pot test, transplanted rice; assay type: in vivo, Oryza sativa L.; conditions: active ingredient 250 g/ha, applied 4th day after transplantation, visually observed 21st day after application, 0 = non-treated, 100 = complete kill
Procedure, shortened: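 Rice (var. Nihonbare) at 2 leaf stage transplanted 3 cm deep into puddled paddy soil under 3–4 cm flooding; on day 4 after transplanting, diluted wettable powder or emulsifiable concentrate applied by pipette under submerged conditions at a set active-ingredient dose. Growth scored visually 21 days after application, 0 (untreated) to 100 (complete kill) %.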

green foxtail = assay: Test Example 2: soil surface treatment, upland pot test; assay type: in vivo, Setaria viridis L.; conditions: active ingredient 500 g/ha
Procedure, shortened: as §1

redroot pigweed = assay: as above; assay type: in vivo, Amaranthus retroflexus L.; conditions: active ingredient 500 g/ha
Procedure, shortened: as §1

soybean = assay: as above; assay type: in vivo, Glycine max Merr.; conditions: active ingredient 500 g/ha
Procedure, shortened: as §1

barnyardgrass [1] = assay: Test Example 3: paddy pot test, application under submerged conditions; assay type: in vivo, Echinochloa crus-galli L.; conditions: active ingredient 250 g/ha; submerged application at 0.5 leaf stage; visually observed 14 days after application; 0 = non-treated, 100 = complete kill
Procedure, shortened: as §2

corn = assay: Test Example 2: soil surface treatment, upland pot test; assay type: in vivo, Zea mays L.; conditions: active ingredient 500 g/ha
Procedure, shortened: as §1

prickly sida = assay: as above; assay type: in vivo, Sida spinosa L.; conditions: active ingredient 500 g/ha
Procedure, shortened: as §1

japanese bulrush = assay: Test Example 3: paddy pot test, application under submerged conditions; assay type: in vivo, Scirpus juncoides; conditions: active ingredient 250 g/ha; submerged application at 0.5 leaf stage; visually observed 14 days after application; 0 = non-treated, 100 = complete kill
Procedure, shortened: as §2

barnyardgrass [2] = assay: Test Example 2: soil surface treatment, upland pot test; assay type: in vivo, Echinochloa crus-galli L.; conditions: active ingredient 500 g/ha
Procedure, shortened: as §1

crabgrass = assay: as above; assay type: in vivo, Digitaria sanguinalis L.; conditions: active ingredient 500 g/ha
Procedure, shortened: as §1

velvetleaf = assay: as above; assay type: in vivo, Abutilon theophrasti MEDIC.; conditions: active ingredient 500 g/ha
Procedure, shortened: as §1

[3] = observed day 21, 0 = non-treated, 100 = complete kill

Compound | Growth controlling degree (%) Rice (rice; observed 20th to 28th day) [%] | Growth controlling degree (%) Japanese ribbon wapato (japanese ribbon wapato) [%] | Growth controlling degree (%) Rice (rice (var. Nihonbare)) [%] | Growth controlling degree (%) Green foxtail (green foxtail; observed 20th to 28th day) [%] | Growth controlling degree (%) Redroot pigweed (redroot pigweed; observed 20th to 28th day) [%] | Growth controlling degree (%) Soyabean (soybean; observed 20th to 28th day) [%] | Growth controlling degree (%) Barnyardgrass (barnyardgrass [1]) [%] | Growth controlling degree (%) Corn (corn; observed 20th to 28th day) [%] | Growth controlling degree (%) Prickly sida (prickly sida; observed 20th to 28th day) [%] | Growth controlling degree (%) Japanese bulrush (japanese bulrush) [%] | Growth controlling degree (%) Barnyardgrass (barnyardgrass [2]; observed 20th to 28th day) [%] | Growth controlling degree (%) Crabgrass (crabgrass; observed 20th to 28th day) [%] | Growth controlling degree (%) Velvetleaf (velvetleaf; observed 20th to 28th day) [%] | also measured
Cc1ccc(OCC(=O)N(C)C(c2cnccc2C(F)(F)F)C(C)C)cc1 (stereo not shown) [Compound I-239] | 0 | 70 | 0 | 90 | 70 | 10 | 98 | 10 | 80 | 98 | 60 | 95 | 30 | –
CC(C)C(c1cnccc1C(F)(F)F)N(C)C(=O)COc1cccc(F)c1 (stereo not shown) [Compound I-242] | 10 | 70 | 0 | 100 | 90 | 10 | 100 | 40 | 98 | 95 | 98 | 98 | 70 | –
CC(C)C(c1cnccc1C(F)(F)F)N(C)C(=O)COc1ccccc1F (stereo not shown) [Compound I-243] | 10 | 70 | 0 | 100 | 80 | 10 | 100 | 40 | 90 | 98 | 90 | 100 | 30 | –
CC(C)C(c1cnccc1C(F)(F)F)N(C)C(=O)COc1cc(F)ccc1F (stereo not shown) [Compound I-245] | – | 70 | 10 | – | – | – | 100 | – | – | 95 | – | – | – | Growth controlling degree (%) Rice (rice; [3]): 35%; Growth controlling degree (%) Green foxtail (green foxtail; [3]): 80%; Growth controlling degree (%) Redroot pigweed (redroot pigweed; [3]): 50%; Growth controlling degree (%) Soyabean (soybean; [3]): 40%; Growth controlling degree (%) Corn (corn; [3]): 50%; Growth controlling degree (%) Prickly sida (prickly sida; [3]): 70%; Growth controlling degree (%) Barnyardgrass (barnyardgrass [2]; [3]): 90%; Growth controlling degree (%) Crabgrass (crabgrass; [3]): 80%; Growth controlling degree (%) Velvetleaf (velvetleaf; [3]): 0%
CC(C)C(c1cnccc1C(F)(F)F)N(C)C(=O)COc1ccc(F)cc1F (stereo not shown) [Compound I-246] | – | 70 | 10 | – | – | – | 100 | – | – | 98 | – | – | – | Growth controlling degree (%) Rice (rice; [3]): 20%; Growth controlling degree (%) Green foxtail (green foxtail; [3]): 98%; Growth controlling degree (%) Redroot pigweed (redroot pigweed; [3]): 50%; Growth controlling degree (%) Soyabean (soybean; [3]): 40%; Growth controlling degree (%) Corn (corn; [3]): 40%; Growth controlling degree (%) Prickly sida (prickly sida; [3]): 80%; Growth controlling degree (%) Barnyardgrass (barnyardgrass [2]; [3]): 98%; Growth controlling degree (%) Crabgrass (crabgrass; [3]): 95%; Growth controlling degree (%) Velvetleaf (velvetleaf; [3]): 30%
CC(C)C(c1cnccc1Cl)N(C)C(=O)Cc1ccc(Cl)cc1 (stereo not shown) [I-82] | 30 | 0 | 30 | 70 | 60 | 0 | 98 | 10 | 0 | 98 | 80 | 90 | 0 | –
Cc1cccc(CC(=O)N(C)C(c2cnccc2C(F)(F)F)C(C)C)c1 (stereo not shown) [I-87] | 0 | 70 | 0 | 95 | 85 | 0 | 100 | 40 | 100 | 90 | 100 | 98 | 70 | –
Cc1ccc(CC(=O)N(C)C(c2cnccc2C(F)(F)F)C(C)C)cc1 (stereo not shown) [I-94] | 10 | 90 | 0 | 100 | 98 | 0 | 100 | 10 | 100 | 98 | 100 | 100 | 80 | –
CCc1ccc(CC(=O)N(C)C(c2cnccc2C(F)(F)F)C(C)C)cc1 (stereo not shown) [I-95] | 10 | 20 | 0 | 90 | 60 | 30 | 100 | 10 | 80 | 98 | 95 | 98 | 30 | –
CC(C)C(c1cnccc1C(F)(F)F)N(C)C(=O)CCc1ccccc1 (stereo not shown) [I-169] | 40 | 0 | 10 | 100 | 70 | 30 | 100 | 40 | 90 | 50 | 100 | 98 | 20 | –

Source: patent US20050239656A1, “Pyridine compounds or salts thereof and herbicides containing the same” (priority 2002, published 2005)
